One assay addresses T1, ferroportin (Fpn) (Mus musculus, UniProt Q9JHI9).
T1 construct: host or cells: J774 mouse macrophage cell line, Fe(III)-NTA induced
T1 sequence (Q9JHI9 1-570): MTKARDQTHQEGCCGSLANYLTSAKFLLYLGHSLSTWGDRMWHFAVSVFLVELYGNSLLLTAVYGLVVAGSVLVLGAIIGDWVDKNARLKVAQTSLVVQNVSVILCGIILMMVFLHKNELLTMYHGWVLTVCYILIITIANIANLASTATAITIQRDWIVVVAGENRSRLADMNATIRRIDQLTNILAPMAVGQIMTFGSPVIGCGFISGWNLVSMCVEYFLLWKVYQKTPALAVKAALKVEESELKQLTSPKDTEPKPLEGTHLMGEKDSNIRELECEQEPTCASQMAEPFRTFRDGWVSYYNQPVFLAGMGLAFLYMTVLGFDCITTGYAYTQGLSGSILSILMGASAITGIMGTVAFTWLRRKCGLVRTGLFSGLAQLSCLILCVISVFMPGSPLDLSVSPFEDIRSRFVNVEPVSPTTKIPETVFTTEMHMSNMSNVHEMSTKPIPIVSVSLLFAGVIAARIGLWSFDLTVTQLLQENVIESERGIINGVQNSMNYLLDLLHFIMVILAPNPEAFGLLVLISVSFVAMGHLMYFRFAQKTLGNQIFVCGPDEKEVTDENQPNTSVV
As to the kind of experiment: Hepcidin Internalization Assay (J774). The class given is cell-based. As to conditions: average of multiple measurements; inhibition of TMR-hepcidin (25 nM) internalization into J774 cells; read-out: J774 IC50. The source says: This cellular assay allows quantification of the binding of hepcidin to ferroportin (Fpn) through microscopic detection of internalization of a fluorescently labeled hepcidin into J774 cells. […] Binding of hepcidin to Fpn triggers internalization and degradation of both hepcidin and Fpn. However, the TMR (6-carboxytetramethylrhodamine) fluorophore attached to hepcidin remains associated with the cell after degradation of the hepcidin peptide backbone. Therefore, microscopic detection of ceH associated TMR fluorescence is a measure of hepcidin binding to Fpn and internalization of hepcidin and Fpn. If TMR-hepcidin is prevented from binding to Fpn, cellular TMR fluorescence remains low (Dürrenberger et al, 2013). The effect of small molecular weight Fpn inhibitor compounds in this assay was evaluated in vitro as described below.
J774 cells, harvested from ca. 80% confluent cultures, were plated at 8×10^5 cells/ml in complete medium (DMEM, 10% FBS, 1% Penicillin-Streptomycin) containing 200 μM Fe(III)NTA (nitrilotriacetic acid), 100 μl per well of 96 well MicroClear plates (Greiner; Cat. 655090) and grown at 37° C. with 5% CO2. After overnight incubation, cells were washed 3 times with pre-warmed DMEM w/o phenol red, 30 μl/well of DMEM w/o phenol red was added after the final wash and 10 μl/well of dilution series of test compounds were added in triplicates. […] Cells were incubated in a total volume of 50 μl at 37° C. with 5% CO2 for 2 hours, then Hoechst 33342 dye was added to a final concentration of 0.5 μg/ml to stain nuclei and further incubated for 10 min. at 37° C. with 5% CO2. Cells were washed 3 times with PBS and fixed in 100 μl of 4% paraformaldehyde in PBS for 15 min. at room temperature. After removal of the paraformaldehyde solution, cells were washed 3 times with PBS leaving 100 μl per well and the plates were sealed with foil plate seal. TMR (530-550 nm excitation/575-625 nm emission/400 ms exposure time) and Hoechst 33342 (360-370 nm excitation/420-460 nm emission/10 ms exposure time) fluorescence images were acquired using a ScanR plate imager (Olympus) with a 20× high NA objective. Four pictures were acquired per well and fluorescence channel covering ca. 1500 cells per well. The acquired image data was analysed with the ScanR image analysis software. Image analysis included detection of nuclei (Hoechst 33342 fluorescence), identification of cell-associated regions, application of a virtual channel and thresholding for rolling-ball-type background reduction, followed by application of the Sum(Mean) algorithm to measure the TMR fluorescence associated with cells as a quantitative measure for internalized TMR-hepcidin. IC50 values were calculated with the Sum(Mean) raw data using “log(inhibitor) vs. response” curve fitting of Prism 5 software (GraphPad Software Inc., version 5.02).

In the next assay the target is T2, human Fpn (Homo sapiens, UniProt Q9NP59).
T2 construct: FLAG (C); made in house; host or cells: Pichia pastoris
T2 sequence (Q9NP59 1-571): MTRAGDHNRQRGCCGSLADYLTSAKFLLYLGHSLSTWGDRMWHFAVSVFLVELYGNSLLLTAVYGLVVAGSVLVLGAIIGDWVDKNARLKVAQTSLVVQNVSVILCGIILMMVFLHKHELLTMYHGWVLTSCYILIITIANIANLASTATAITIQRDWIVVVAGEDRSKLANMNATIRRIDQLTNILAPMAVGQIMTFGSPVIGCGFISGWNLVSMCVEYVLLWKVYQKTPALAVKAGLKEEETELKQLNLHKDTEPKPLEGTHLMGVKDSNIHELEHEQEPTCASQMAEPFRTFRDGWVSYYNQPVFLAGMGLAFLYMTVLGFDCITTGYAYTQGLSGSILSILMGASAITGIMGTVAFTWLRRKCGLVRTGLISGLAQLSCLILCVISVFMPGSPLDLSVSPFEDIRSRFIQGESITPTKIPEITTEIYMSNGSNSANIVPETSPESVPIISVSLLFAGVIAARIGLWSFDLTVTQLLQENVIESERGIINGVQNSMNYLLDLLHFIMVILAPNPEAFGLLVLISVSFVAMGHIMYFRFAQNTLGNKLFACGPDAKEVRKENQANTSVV
Kind of assay: Biophysical Ferroportin-Hepcidin Binding Assay (fluorescence polarization). Particulars: average of multiple measurements; 1 μM human Fpn, 20 nM TMR-hepcidin; read-out: FP IC50. As to the method: This biophysical assay was developed to confirm inhibition of hepcidin binding to ferroportin (Fpn) more directly. Incubation of TMR-hepcidin with purified human Fpn isolated from Pichia pastoris yeast cells expressing human Fpn with a C-terminal FLAG affinity tag (Bonaccorsi di Patti, 2014) leads to increased fluorescence polarization (FP) of the TMR-hepcidin ligand. Small molecular weight Fpn inhibitors were tested for inhibition of binding of TMR-hepcidin to Fpn, as detected by dose-dependent decrease of the TMR FP signal, as described in detail below.
8 μl of serial dilutions of test compounds were added in duplicates to reach final Fpn and TMR-hepcidin concentrations of 1 μM and 20 nM, respectively. Plates were incubated for 90 minutes at room temperature and parallel (S) and perpendicular (P) fluorescence was measured in a Synergy H1 fluorescence reader (BioTek). FP values were calculated in mP according to the following formula.

Data on 35 compounds can be found in patent US10738041B2, “Ferroportin inhibitors” (Vifor (International) AG, priority 2015, dated 2020).

What is called IC50 is the concentration at which inhibition is half-maximal.

Each structure is given as a SMILES string.

For `O=C(c1csc(CCNCc2nc3ccccc3[nH]2)n1)N1CCCCC1` [compound 14], the IC50 at ferroportin (Fpn) stood at 4900 nM; on human Fpn, 14900 nM. With `O=C(NCc1ncccc1F)c1cnn(C2CCN(Cc3nc4ccccc4[nH]3)CC2)c1` [Example 150], the IC50 at human Fpn was found to be 73000 nM. `COc1ccc2[nH]c(CNCCc3nc(C(=O)NCc4ccccc4)cs3)nc2c1` [Example 50]: the IC50 came to 410 nM at ferroportin (Fpn) and 1480 nM at human Fpn. Consider `O=C(NCc1ccccc1N1CCOCC1)c1csc(CCNCc2nc3ccccc3[nH]2)n1` [Example 63], for which the IC50 was 610 nM on ferroportin (Fpn) and 846 nM at human Fpn. As for `O=C(NCc1ccccc1)c1csc(CCNCc2ccc(F)cn2)n1` [Example 6], the IC50 at ferroportin (Fpn) turned out to be 12700 nM; at human Fpn it was 48600 nM. Consider `O=C(NCc1ncccc1F)c1csc(CCNc2nc3ccccc3[nH]2)n1` [Example 121], for which the IC50 at ferroportin (Fpn) is 473 nM; at human Fpn, 5100 nM. `CN(C(=O)c1csc(CCNCc2nc3ccccc3[nH]2)n1)c1ccccc1` [Example 19]: the IC50 on ferroportin (Fpn) was 10000 nM; at human Fpn, 10200 nM.

With `CN1CCOCC1CNC(=O)c1csc(CCNCc2nc3ccccc3[nH]2)n1` (stereo not shown) [Example 41], the IC50 at ferroportin (Fpn) turned out to be 3980 nM; on human Fpn, 12000 nM.

`O=C(NCc1ccc[nH]c1=O)c1csc(CCNCc2nc3ccccc3[nH]2)n1` [Example 83]: the IC50 was determined as 96 nM on ferroportin (Fpn) and 1050 nM on human Fpn. Turning to `O=C(NCc1ccccc1)c1csc(CCNCc2ncc[nH]2)n1` [Example 20], the IC50 on ferroportin (Fpn) was 9400 nM; on human Fpn it was 9610 nM.

On to `O=C(NCc1ccccc1)c1csc(CCNCc2nc3cc(O)ccc3[nH]2)n1` [Example 30], for which the IC50 on ferroportin (Fpn) came out at 12900 nM; on human Fpn it was 2330 nM. For the compound `CN(C)c1ccccc1CNC(=O)c1csc(CCNCc2nc3ccccc3[nH]2)n1` [Example 70], the results for the IC50 at ferroportin (Fpn) and at human Fpn were 530 nM and 1060 nM, respectively. The like results for `COc1cc(CNC(=O)c2csc(CCNCc3nc4ccccc4[nH]3)n2)ccn1` [Example 104] were, in that order, 900 nM and 1760 nM.

`NC(=O)c1ccc(CNC(=O)c2csc(CCNCc3nc4ccccc4[nH]3)n2)cn1` [Example 54]: the IC50 at ferroportin (Fpn) was found to be 460 nM; on human Fpn it was 11400 nM.

With `CN(C)C(=O)c1csc(CCNCc2nc3ccccc3[nH]2)n1` [Example 22], the IC50 at ferroportin (Fpn) stood at 17200 nM; at human Fpn, 14200 nM. Turning to `O=C(CC(=O)NCc1ncccc1F)NCCNCCc1nc2ccccc2[nH]1` [compound 168], the half-maximal inhibitory concentration (IC50) at ferroportin (Fpn) turned out to be 884 nM; on human Fpn, 1360 nM. Take `O=C(NCc1ccccc1OC(F)F)c1csc(CCNCc2nc3ccccc3[nH]2)n1` [Example 74]: the half-inhibitory concentration (IC50) on ferroportin (Fpn) stood at 210 nM; on human Fpn, 451 nM. Regarding `O=C(Nc1ncccc1F)c1csc(CCNCc2nc3ccccc3[nH]2)n1` [Example 77], the concentration for half-maximal inhibition (IC50) at ferroportin (Fpn) was 350 nM; at human Fpn, 2810 nM. As for `COc1ccc(CNC(=O)c2csc(CCNCc3nc4ccccc4[nH]3)n2)nc1` [Example 45], the IC50 amounted to 440 nM at ferroportin (Fpn) and 2100 nM at human Fpn. On to `O=C(NCCc1ccccc1)c1csc(CCNCc2nc3ccccc3[nH]2)n1` [Example 78], for which the figures for the 50% inhibitory concentration (IC50) at ferroportin (Fpn) and at human Fpn were 410 nM and 4150 nM, respectively. The like results for `O=C(NCc1ccccc1OC(F)(F)F)c1csc(CCNCc2nc3ccccc3[nH]2)n1` [Example 72] were, in that order, 1360 nM and 931 nM. The like results for `O=C(NCc1c(F)cccc1F)c1csc(CCNCc2nc3ccccc3[nH]2)n1` [Example 69] were, in that order, 260 nM and 1510 nM. On to `O=C(NCc1ccccc1)c1csc(CCNCc2nc3cc(F)ccc3[nH]2)n1` [Example 31], for which the IC50 on ferroportin (Fpn) was 1100 nM; at human Fpn, 940 nM. The like results for `O=C(NCc1ccnc(N2CCOCC2)c1)c1csc(CCNCc2nc3ccccc3[nH]2)n1` [Example 96] were, in that order, 2970 nM and 7290 nM. For the compound `Cn1c(CNCCc2nc(C(=O)NCc3ccccc3)cs2)nc2ccccc21` [Example 28], the 50% inhibitory concentration (IC50) on ferroportin (Fpn) was 180 nM; on human Fpn, 1220 nM. On to `CC(NC(=O)c1csc(CCNCc2nc3ccccc3[nH]2)n1)c1ccccn1` (stereo not shown) [Example 80], for which the results for the IC50 at ferroportin (Fpn) and on human Fpn were 345 nM and 2280 nM, respectively. For `CC(C)N(C(=O)c1csc(CCNCc2nc3ccccc3[nH]2)n1)C1CCCCC1` [Example 25], the half-inhibitory concentration (IC50) was determined as 2200 nM at ferroportin (Fpn) and 3930 nM at human Fpn. On to `O=C(NCc1ncccc1F)c1csc(C2CCN(CCc3nc4ccccc4[nH]3)C2)n1` (stereo not shown) [Example 214], for which the values for the IC50 on ferroportin (Fpn) and at human Fpn were 14100 nM and 3190 nM, respectively. `CC(C)(NC(=O)c1csc(CCNCc2nc3ccccc3[nH]2)n1)c1ccccc1` [Example 26]: the values for the IC50 at ferroportin (Fpn) and on human Fpn were 700 nM and 1120 nM, respectively. As to `O=C(CC(=O)NCc1ncccc1F)NCCNCc1nc2ccccc2[nH]1` [compound 149], the concentration for half-maximal inhibition (IC50) on ferroportin (Fpn) is 6250 nM; at human Fpn, 17000 nM.

Regarding `Cn1cc(C(=O)NCc2ncccc2F)nc1CCNCc1nc2ccccc2[nH]1` [Example 210], the half-maximal inhibitory concentration (IC50) came to 4910 nM on ferroportin (Fpn) and 1880 nM at human Fpn. Regarding `Cc1c(C(=O)NCc2ncccc2F)ncn1CCNCCc1nc2ccccc2[nH]1` [Example 219], the 50% inhibitory concentration (IC50) on ferroportin (Fpn) came to 2430 nM; at human Fpn, 1100 nM. With `O=C(NCc1cccnn1)c1coc(C2CN(CCc3nc4c(F)cccc4[nH]3)C2)n1` [Example 261], the IC50 on ferroportin (Fpn) worked out at 554 nM; at human Fpn, 440 nM.

With `O=C(NCc1ncccc1F)c1cnn(CC2CCCN(Cc3nc4ccccc4[nH]3)C2)c1` (stereo not shown) [Example 153], at human Fpn, the half-inhibitory concentration (IC50) is 57800 nM. On to `O=C(NC1CCc2cccnc21)c1cnn(CCNCCc2nc3ccccc3[nH]2)c1` (stereo not shown) [Example 131], for which the concentration for half-maximal inhibition (IC50) at ferroportin (Fpn) came out at 90 nM.
